From patent US8552000B2, “Therapeutic agent for senile dementia” (Dainippon Sumitomo Pharma Co., Ltd., priority 2003, dated 2013)

System: scopolamine-induced cognitive/memory dysfunction models
Assay: one step-through passive avoidance test, scopolamine-induced amnesia
Format: in vivo, Male Wistar rats
Method: Male Wistar rats (7 weeks old) were used. As a test medicament, (1R,2S,3R,4S)—N-|(1R,2R)-2-[4-(1,2-benzisothiazol-3-yl)-1-piperazinyl-methyl]-1-cyclohexylmethyl]-2,3-bicycl[2.2.1]heptanedicarboxylmide (Compound A) was suspended in 0.5% methyl cellulose (MC) solution. As an agent for inducing amnesia, scopolamine (manufactured by Wako Pure Chemical Industries, Ltd., product No. 198-07901), which is an acethylcoline receptor blocker, was dissolved in saline solution (manufactured by TERUMO CORPORATION). Compound A at a dose of 3 mg/kg or 30 mg/kg, or 0.5% MC as a control was orally administered to the animals one hour prior to the training step in the one step-through passive avoidance test, and then, scopolamine at a dose of 0.5 mg/kg or a saline solution as a control was subcutaneously administered to the animals 30 minutes prior to the training step. The volume of each solution to be administered was 5 ml/kg each.
The one step-through passive avoidance test in rats was carried out in the following manners with using an apparatus consisting of a light-dark box and an electric stimulator (manufactured by O'hara & Co., Ltd., product no. PA-2030A) as an experimental apparatus. Namely, on Day 1, after the medicament and the agent for inducing amnesia were administered, the rats were put into the light box of the experimental apparatus where the back of each rat was directed to the dark box. Then, 10 seconds later, a guillotine door set at the border between the dark box and the light box was opened. Due to the habits of the rats, once the rats entered into the dark box, the guillotine door was quickly closed. At three seconds after the entering into the dark box, an electroconvulsive shock (0.5 mA, for 3 seconds) was given to the rats. Again, the guillotine door was opened, and after the rats spontaneously returned to the light box, the animals were transferred into the home cage. The period between the time just after the guillotine door was opened and the time at which the rats entered into the dark box was measured as a step-through latency.
On Day 2 of the experiment, a test was carried out about 24 hours after the training. The procedures of the test were carried out in the same manner to the training step except that an electroconvulsive shock was not given. The step-through latency in the test was measured up to 300 seconds, and the step-through latency over 300 seconds was regarded as 300 seconds. FIG. 1 and FIG. 2 show the effects of Compound A on the scopolamine-induced cognitive/memory dysfunction models in the one step-through passive avoidance test when it was orally administered at a dosage of 3 mg/kg or 30 mg/kg. […] The number of the animals was 15 per group, and the data was expressed in mean±SEM.

Row | SMILES | step-through latency during the training (Compound A 3 mg/kg orally one hour prior to training, scopolamine 0.5 mg/kg s.c. 30 minutes prior, vs 0.5% MC+scopolamine) | step-through latency during the test (Compound A 30 mg/kg orally plus scopolamine 0.5 mg/kg s.c., test about 24 hours after training, vs 0.5% MC+scopolamine) | improving effect of scopolamine-induced cognitive/memory dysfunctions (overall finding of the passive avoidance test in rats, oral administration) | step-through latency during the training (scopolamine 0.5 mg/kg s.c. alone (with 0.5% MC), vs saline solution) | step-through latency during the test (scopolamine 0.5 mg/kg s.c. alone (with 0.5% MC), vs saline solution, about 24 hours after training)
1 | O=C1[C@@H]2[C@@H]3CC[C@@H](C3)[C@@H]2C(=O)N1C[C@@H]1CCCC[C@H]1CN1CCN(c2nsc3ccccc23)CC1 [Compound A] | slightly shortened | significantly extended | exhibited an improving effect |  | 
2 | CN1[C@@H]2C[C@@H](OC(=O)[C@H](CO)c3ccccc3)C[C@H]1[C@@H]1O[C@@H]12 [scopolamine, reference compound] |  |  |  | did not affect | significantly shorter
